How the values were obtained:
Experiment in all cases: relative viability (nuclei count vs DMSO), 5 days (fraction); higher = more cells survive
[1] = compound: C[C@H]([C@@H](C(=O)N)NC(=O)[C@@H]1CSSC[C@@H](C(=O)N[C@H](C(=O)N[C@@H](C(=O)N[C@H](C(=O)N1)CCCCN)CC2=CNC3=CC=CC=C32)CC4=CC=C(C=C4)O)NC(=O)[C@@H](CC5=CC=CC=C5)N)O [CAP-232] + CC(=O)Nc1cccc(-n2c(=O)n(C3CC3)c(=O)c3c(Nc4ccc(I)cc4F)n(C)c(=O)c(C)c32)c1 [Trametinib] (partner 0.02 µM)
In short: (§1)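 Relative viability is defined as nuclei in treated wells over nuclei in vehicle wells. Duplicate plates were run and medians reported. Lung cancer cell lines in 1536-well plates were dosed by pin tool one day after seeding, with one drug or with a fixed anchor-drug dose plus five library-drug doses (not always all listed) in √10 steps, and nuclei were counted after 5 days.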

[2] = compound: C[C@H]([C@@H](C(=O)N)NC(=O)[C@@H]1CSSC[C@@H](C(=O)N[C@H](C(=O)N[C@@H](C(=O)N[C@H](C(=O)N1)CCCCN)CC2=CNC3=CC=CC=C32)CC4=CC=C(C=C4)O)NC(=O)[C@@H](CC5=CC=CC=C5)N)O [CAP-232] + NC(=O)Nc1cc(-c2cccc(F)c2)sc1C(=O)N[C@H]1CCCNC1 [AZD7762] (partner 0.2 µM)
In short: as §1

[3] = compound: C[C@H]([C@@H](C(=O)N)NC(=O)[C@@H]1CSSC[C@@H](C(=O)N[C@H](C(=O)N[C@@H](C(=O)N[C@H](C(=O)N1)CCCCN)CC2=CNC3=CC=CC=C32)CC4=CC=C(C=C4)O)NC(=O)[C@@H](CC5=CC=CC=C5)N)O [CAP-232] + Cc1cc(Nc2cc(N3CCN(C)CC3)nc(Sc3ccc(NC(=O)C4CC4)cc3)n2)n[nH]1 [Tozasertib] (partner 0.1 µM)
In short: as §1

[4] = compound: C[C@H]([C@@H](C(=O)N)NC(=O)[C@@H]1CSSC[C@@H](C(=O)N[C@H](C(=O)N[C@@H](C(=O)N[C@H](C(=O)N1)CCCCN)CC2=CNC3=CC=CC=C32)CC4=CC=C(C=C4)O)NC(=O)[C@@H](CC5=CC=CC=C5)N)O [CAP-232] + CC(=O)c1c(C)c2cnc(Nc3ccc(N4CCNCC4)cn3)nc2n(C2CCCC2)c1=O [Palbociclib] (partner 0.5 µM)
In short: as §1

[5] = compound: C[C@H]([C@@H](C(=O)N)NC(=O)[C@@H]1CSSC[C@@H](C(=O)N[C@H](C(=O)N[C@@H](C(=O)N[C@H](C(=O)N1)CCCCN)CC2=CNC3=CC=CC=C32)CC4=CC=C(C=C4)O)NC(=O)[C@@H](CC5=CC=CC=C5)N)O [CAP-232] + Cc1nc(Nc2ncc(C(=O)Nc3c(C)cccc3Cl)s2)cc(N2CCN(CCO)CC2)n1 [Dasatinib] (partner 0.075 µM)
In short: as §1

Cell Line	relative viability ([1]; first compound 0.4 µM)	relative viability ([1]; first compound 1.265 µM)	relative viability ([1]; first compound 4 µM)	relative viability ([1]; first compound 12.65 µM)	relative viability ([2]; first compound 0.4 µM)	relative viability ([2]; first compound 1.265 µM)	relative viability ([2]; first compound 4 µM)	relative viability ([2]; first compound 12.65 µM)	relative viability ([3]; first compound 0.4 µM)	relative viability ([3]; first compound 1.265 µM)	relative viability ([3]; first compound 4 µM)	relative viability ([3]; first compound 12.65 µM)	relative viability ([4]; first compound 0.4 µM)	relative viability ([4]; first compound 1.265 µM)	relative viability ([4]; first compound 4 µM)	relative viability ([4]; first compound 12.65 µM)	relative viability ([5]; first compound 0.4 µM)	relative viability ([5]; first compound 1.265 µM)	relative viability ([5]; first compound 4 µM)	relative viability ([5]; first compound 12.65 µM)
NCI-H647	0.321	0.504	0.564	0.249	0.767	0.33	0.696	0.282	0.216	0.259	0.269	0.276	0.34	0.358	0.404	0.284	0.259	0.155	0.179	0.125
NCI-H2009	0.237	0.251	0.247	0.301					0.757	0.713	0.823	0.684	0.181	0.244	0.175	0.153	0.288	0.278	0.273	0.195
EPLC-272H	0.261	0.258	0.281	0.28	0.287	0.165	0.228	0.209	0.25	0.182	0.288	0.389	0.342	0.292	0.297	0.296	0.402	0.306	0.321	0.386
NCI-H520	0.559	0.637	0.799	0.521					0.439	0.405	0.395	0.354	0.241	0.224	0.249	0.234	0.189	0.193	0.251	0.201
NCI-H2405	0.416	0.673	0.558	0.447	0.822	0.8	0.765	0.524	0.728	0.751	0.761	0.683	0.553	0.563	0.536	0.369	0.233	0.203	0.196	0.208
NCI-H2085	0.514	0.586	0.532	0.569	1.04	1.03	0.988	0.964	0.94	0.816	0.827	0.844	0.465	0.495	0.447	0.5	0.232	0.193	0.223	0.19
NCI-H322M	0.46	0.514	0.497	0.539	0.827	0.645	0.528	0.556	0.448	0.5	0.515	0.498	0.494	0.427	0.446	0.508	0.275	0.237	0.256	0.34
NCI-H1944	0.353	0.437	0.404	0.422	0.516	0.476	0.452	0.367	0.245	0.253	0.27	0.263	0.393	0.31	0.326	0.325	0.215	0.197	0.21	0.182
LC-2-ad	0.967	0.925	0.936	0.884	0.917	0.815	0.919	0.688	0.518	0.478	0.439	0.267	0.478	0.517	0.473	0.513	0.907	0.525	0.547	0.26
NCI-H358	0.111	0.138	0.13	0.098	0.466	0.406	0.376	0.318	0.102	0.115	0.089	0.0797	0.22	0.125	0.14	0.153	0.183	0.151	0.124	0.179
NCI-H2170	0.977	0.918	1.05	1.08	0.915	0.907	0.906	0.846	0.852	0.667	0.615	0.73	0.358	0.38	0.429	0.424	0.684	0.558	0.557	0.58
NCI-H2342	0.788	0.746	0.766	0.787	0.478	0.539	0.586	0.574	0.479	0.459	0.436	0.437	0.45	0.509	0.497	0.487	0.308	0.334	0.291	0.321
SW 900	0.75	0.93	0.677	0.767	0.666	0.604	0.515	0.547	0.658	0.593	0.583	0.582	0.528	0.481	0.512	0.465	0.644	0.614	0.64	0.591

From the supplement of paper PMC10307832
